Measured values: US5041567A, “Antibacterial monic acid derivatives” (Beecham Group plc, priority 1982, dated 1991)
In brackets after ≈: the same amount, converted by molar mass. Where two headings read alike, the source gives them in different places.

Legend:
[1] = system: Pasteurella multocida 1633; experiment: MIC against human bacteria in vitro; format: cell-based
Bord. bronchiseptica B08 = experiment: MIC against veterinary bacteria in vitro; details: Bordetella bronchiseptica, B08, 18 h
Method: (§1) The activity of the compounds of the Examples against various veterinarily important bacteria, was assayed in vitro using two-fold serial dilutions in Diagnostic Sensitivity Test Agar inoculated with 10^4 organisms.

P. mirabilis 889 = experiment: MIC against human bacteria in vitro; format: cell-based
E. coli E1 = experiment: MIC against veterinary bacteria in vitro; details: Escherichia coli, E1, 18 h
Method: as §1

[2] = system: M. suipneumoniae PW/C/210; experiment: MIC against mycoplasma in vitro; format: cell-based; details: Mesomycoplasma hyopneumoniae, 144 h
[3] = system: Haemophilus influenzae Q1; experiment: MIC against human bacteria in vitro; format: cell-based
M. bovis NCTC 10131 = experiment: microbe, parasite or virus in culture; format: cell-based; details: NCTC10131, 144 h
Past. haemolytica PA5 = experiment: MIC against veterinary bacteria in vitro; details: Mannheimia haemolytica, PA5, 18 h
Method: as §1

M. pneumoniae ATCC 15492 = experiment: MIC against mycoplasma in vitro; format: cell-based; details: Mycoplasmoides pneumoniae, ATCC15492, 144 h
M. suipneumoniae UCD 1 = experiment: MIC against mycoplasma in vitro; format: cell-based; details: Mesomycoplasma hyopneumoniae, UCD1, 144 h
[4] = system: M. suipneumoniae NCTC 10110; experiment: MIC against mycoplasma in vitro; format: cell-based; details: Mesomycoplasma hyopneumoniae, NCTC10110, 144 h
[5] = system: Strep. suis (group D) SPS11; experiment: MIC against veterinary bacteria in vitro; details: Streptococcus suis, 18 h
Method: as §1

Strep. agalactiae SPA1 = experiment: MIC against veterinary bacteria in vitro; details: Streptococcus agalactiae, SPA1, 18 h
Method: as §1

Staph. aureus Oxford = experiment: MIC against human bacteria in vitro; format: cell-based; details: Staphylococcus aureus
Past. multocida PA1 = experiment: MIC against veterinary bacteria in vitro; details: Pasteurella multocida, PA1, 18 h
Method: as §1

[6] = system: M. hyosynoviae ATCC 25591; experiment: MIC against mycoplasma in vitro; format: cell-based; details: 144 h
Bord. bronchiseptica B09 = experiment: MIC against veterinary bacteria in vitro; details: Bordetella bronchiseptica, B09, 18 h
Method: as §1

M. gallisepticum S6 = experiment: MIC against mycoplasma in vitro; format: cell-based; details: Mycoplasmoides gallisepticum
M. dispar NCTC 10125 = experiment: MIC against mycoplasma in vitro; format: cell-based; details: 144 h
M. suipneumoniae JF 435 = experiment: MIC against mycoplasma in vitro; format: cell-based; details: Mesomycoplasma hyopneumoniae, JF435, 144 h
E. coli NCTC 10418 = experiment: MIC against veterinary bacteria in vitro; details: Escherichia coli, NCTC10418, 18 h
Method: as §1

[7] = system: M. suipneumoniae J2206/183^b; experiment: MIC against mycoplasma in vitro; format: cell-based; details: Mesomycoplasma hyopneumoniae, 144 h
[8] = system: Staph. aureus B4 (pen. resistant); experiment: MIC against veterinary bacteria in vitro; details: Staphylococcus aureus, 18 h
Method: as §1

[9] = Haemophilus influenzae, Q1, 18 h
[10] = Pasteurella multocida 1633, 5% chocolated horse blood agar, 18 hours, read-out: MIC
[11] = Proteus mirabilis, P. mirabilis 889, 5% chocolated horse blood agar, 18 hours, read-out: MIC
[12] = Staph. aureus Oxford, 5% chocolated horse blood agar, 18 hours, read-out: MIC
[13] = M. suipneumoniae PW/C/210, 6 days, 37° C., read-out: MIC
[14] = Haemophilus influenzae Q1, 5% chocolated horse blood agar, 18 hours, read-out: MIC
[15] = M. pneumoniae ATCC 15492, 6 days, 37° C., read-out: MIC
[16] = M. suipneumoniae UCD 1, 6 days, 37° C., read-out: MIC
[17] = M. suipneumoniae NCTC 10110, 6 days, 37° C., read-out: MIC
[18] = M. hyosynoviae ATCC 25591, 6 days, 37° C., read-out: MIC
[19] = 144 h, M. gallisepticum S6, 6 days, 37° C., read-out: MIC
[20] = M. dispar NCTC 10125, 6 days, 37° C., read-out: MIC
[21] = M. suipneumoniae JF 435, 6 days, 37° C., read-out: MIC
[22] = M. suipneumoniae J2206/183^b, 6 days, 37° C., read-out: MIC

Row | Compound | MIC (Bord. bronchiseptica B08) [µg/mL] | MIC (E. coli E1) [µg/mL] | MIC [2] [µg/mL] | MIC (M. bovis NCTC 10131) [µg/mL] | MIC (Past. haemolytica PA5) [µg/mL] | MIC (M. suipneumoniae UCD 1) [µg/mL] | MIC [4] [µg/mL] | MIC [5] [µg/mL] | MIC (Strep. agalactiae SPA1) [µg/mL] | MIC (Past. multocida PA1) [µg/mL] | MIC [6] [µg/mL] | MIC (Bord. bronchiseptica B09) [µg/mL] | MIC (E. coli NCTC 10418) [µg/mL] | MIC [8] [µg/mL] | MIC [1, 10] [µg/mL] | MIC (P. mirabilis 889; [11]) [µg/mL] | MIC (Staph. aureus Oxford; [12]) [µg/mL] | MIC [3, 14] [µg/mL] | MIC (M. pneumoniae ATCC 15492; [15]) [µg/mL] | MIC (M. gallisepticum S6; [19]) [µg/mL] | other results
1 | CSc1ccc(-c2cnc(/C=C(\C)C[C@@H]3OC[C@H](C[C@@H]4O[C@H]4[C@@H](C)[C@H](C)O)[C@@H](O)[C@H]3O)o2)cc1 [Example 9, 5-p-methylthiophenyl-2-(1-normon-2-yl)oxazole A] | 40 (≈ 81.7 µM) | > 80 | 0.5 (≈ 1.02 µM) | 0.05 (≈ 0.102 µM) | 40 (≈ 81.7 µM) | 0.5 (≈ 1.02 µM) | 0.5 (≈ 1.02 µM) | 10 (≈ 20.4 µM) | 10 (≈ 20.4 µM) | 20 (≈ 40.8 µM) | 0.5 (≈ 1.02 µM) | 40 (≈ 81.7 µM) | > 80 | 1.25 (≈ 2.55 µM) | – | – | – | – | – | – | MIC ([1]; Pasteurella multocida, 1633, 18 h): 5 µg/mL (≈ 10.2 µM); MIC (P. mirabilis 889; Proteus mirabilis, 889, 18 h): > 100 µg/mL; MIC [3, 9]: 5 µg/mL (≈ 10.2 µM); MIC (M. pneumoniae ATCC 15492): 1 µg/mL (≈ 2.04 µM); MIC (Staph. aureus Oxford; 18 h): 2.5 µg/mL (≈ 5.11 µM); MIC (M. gallisepticum S6; S6, 144 h): 1 µg/mL (≈ 2.04 µM); MIC (M. dispar NCTC 10125): 0.1 µg/mL (≈ 0.204 µM); MIC (M. suipneumoniae JF 435): 0.5 µg/mL (≈ 1.02 µM); MIC [7]: 0.5 µg/mL (≈ 1.02 µM)
2 | C/C(=C\c1ncc(-c2ccc(S(C)(=O)=O)cc2)o1)C[C@@H]1OC[C@H](C[C@@H]2O[C@H]2[C@@H](C)[C@H](C)O)[C@@H](O)[C@H]1O [Example 10] | > 80 | > 80 | 0.025 (≈ 0.0479 µM) | 0.01 (≈ 0.0192 µM) | 40 (≈ 76.7 µM) | 0.05 (≈ 0.0959 µM) | 0.05 (≈ 0.0959 µM) | 10 (≈ 19.2 µM) | 2.5 (≈ 4.79 µM) | 5 (≈ 9.59 µM) | 0.05 (≈ 0.0959 µM) | 40 (≈ 76.7 µM) | > 80 | 5 (≈ 9.59 µM) | 8 (≈ 15.3 µM) | > 128 | 8 (≈ 15.3 µM) | – | – | – | MIC [3, 9]: 1 µg/mL (≈ 1.92 µM); MIC (M. pneumoniae ATCC 15492): 0.1 µg/mL (≈ 0.192 µM); MIC (M. gallisepticum S6; S6, 144 h): 0.1 µg/mL (≈ 0.192 µM); MIC (M. dispar NCTC 10125): 0.025 µg/mL (≈ 0.0479 µM); MIC (M. suipneumoniae JF 435): 0.05 µg/mL (≈ 0.0959 µM); MIC [7]: 0.05 µg/mL (≈ 0.0959 µM)
3 | C/C(=C\c1ncc(-c2ccc([S+](C)[O-])cc2)o1)C[C@@H]1OC[C@H](C[C@@H]2O[C@H]2[C@@H](C)[C@H](C)O)[C@@H](O)[C@H]1O (stereo partly drawn) [Example 11, 5-p-Methylsulphinylphenyl-2-(1-normon-2-yl) oxazole A] | > 80 | > 80 | – | ≤ 0.01 | 40 (≈ 79.1 µM) | – | – | 5 (≈ 9.89 µM) | 2.5 (≈ 4.94 µM) | 5 (≈ 9.89 µM) | – | 40 (≈ 79.1 µM) | > 80 | 5 (≈ 9.89 µM) | 8 (≈ 15.8 µM) | > 128 | 16 (≈ 31.6 µM) | 2 (≈ 3.96 µM) | 0.5 (≈ 0.989 µM) | 0.5 (≈ 0.989 µM) | MIC [2, 13]: 0.1 µg/mL (≈ 0.198 µM); MIC (M. suipneumoniae UCD 1; [16]): 0.25 µg/mL (≈ 0.494 µM); MIC [4, 17]: 0.25 µg/mL (≈ 0.494 µM); MIC [6, 18]: 0.25 µg/mL (≈ 0.494 µM); MIC (M. dispar NCTC 10125; [20]): 0.1 µg/mL (≈ 0.198 µM); MIC (M. suipneumoniae JF 435; [21]): 0.25 µg/mL (≈ 0.494 µM); MIC [7, 22]: 0.25 µg/mL (≈ 0.494 µM)
4 | C/C(=C\c1ncc(CCCCCCCC(=O)O)o1)C[C@@H]1OC[C@H](C[C@@H]2O[C@H]2[C@@H](C)[C@H](C)O)[C@@H](O)[C@H]1O [Example 12, Sodium 8-[2-(1-normon-2-yl)-5-oxazolyl]-octanoate A] | > 40 | > 40 | – | 0.05 | 40 | – | – | 20 | 20 | 2.5 | – | 20 | > 40 | 2.5 | 4 | > 16 | 8 | 1 | > 10 | > 10 | MIC [2, 13]: 10 µg/mL; MIC (M. suipneumoniae UCD 1; [16]): > 10 µg/mL; MIC [4, 17]: > 10 µg/mL; MIC [6, 18]: 5 µg/mL; MIC (M. dispar NCTC 10125; [20]): 5 µg/mL; MIC (M. suipneumoniae JF 435; [21]): > 10 µg/mL; MIC [7, 22]: > 10 µg/mL
5 | C/C(=C\c1ncc(-c2ccc(CO)cc2)o1)C[C@@H]1OC[C@H](C[C@@H]2O[C@H]2[C@@H](C)[C@H](C)O)[C@@H](O)[C@H]1O [Example 13, 5-p-Hydroxymethylphenyl-2-(1-normon-2-yl) oxazole A] | > 80 | > 80 | – | ≤ 0.01 | 40 (≈ 84.5 µM) | – | – | 10 (≈ 21.1 µM) | 10 (≈ 21.1 µM) | 2.5 (≈ 5.28 µM) | – | 20 (≈ 42.2 µM) | > 80 | 1.25 (≈ 2.64 µM) | 2 (≈ 4.22 µM) | > 128 | 4 (≈ 8.45 µM) | 0.5 (≈ 1.06 µM) | 0.5 (≈ 1.06 µM) | 0.5 (≈ 1.06 µM) | MIC [2, 13]: 0.1 µg/mL (≈ 0.211 µM); MIC (M. suipneumoniae UCD 1; [16]): 0.25 µg/mL (≈ 0.528 µM); MIC [4, 17]: 0.25 µg/mL (≈ 0.528 µM); MIC [6, 18]: 0.25 µg/mL (≈ 0.528 µM); MIC (M. dispar NCTC 10125): 0.05 µg/mL (≈ 0.106 µM); MIC (M. suipneumoniae JF 435; [21]): 0.25 µg/mL (≈ 0.528 µM); MIC [7, 22]: 0.25 µg/mL (≈ 0.528 µM)
6 | C/C(=C\c1ncc(C)o1)C[C@@H]1OC[C@H](C[C@@H]2O[C@H]2[C@@H](C)[C@H](C)O)[C@@H](O)[C@H]1O [Example 14, 5-Methyl-2-(1-normon-2-yl) oxazole A] | > 80 | > 80 | 2.5 (≈ 6.55 µM) | 0.05 (≈ 0.131 µM) | > 80 | 5 (≈ 13.1 µM) | 5 (≈ 13.1 µM) | > 80 | > 80 | 10 (≈ 26.2 µM) | 5 (≈ 13.1 µM) | > 80 | > 80 | 10 (≈ 26.2 µM) | 16 (≈ 41.9 µM) | > 128 | 16 (≈ 41.9 µM) | 2 (≈ 5.24 µM) | > 10 | > 10 | MIC (M. dispar NCTC 10125; [20]): 0.5 µg/mL (≈ 1.31 µM); MIC (M. suipneumoniae JF 435): 5 µg/mL (≈ 13.1 µM); MIC [7]: 5 µg/mL (≈ 13.1 µM)
